Source: US20110034434A1, “PRODRUGS OF FUSED HETEROCYCLIC INHIBITORS OF D-AMINO ACID OXIDASE” (SEPRACOR INC., priority 2009, published 2011)

Test system: D-serine
Experiment: PK-PD evaluation in rats: D-serine levels in cerebellum after oral dosing
Type: in vivo
Details: rat cerebellum, 6 hours after PO dosing, dose normalized to 10 mg/kg of the acid; mean ± spread (n)
Procedure: Rats (Harlan male Sprague) (N=3) were dosed orally with an amount of test compound, suspended in 45% (w/v) hydroxy-β-cyclodextrin vehicle, dose normalized to 10 mg/kg of the corresponding carboxylic acid. Additional male cannulated rats (N=3) were dosed orally with the parent carboxylic acid, suspended in 45% (w/v) hydroxy-β-cyclodextrin vehicle, at 10 mg/kg. Animals were sacrificed at pre-determined time points (e.g., 0.5, 2 and/or 6 hours post administration) with an N=3 at each time point. At sacrifice, trunk blood was collected into tubes containing potassium EDTA, which were then centrifuged to permit isolation of plasma. The cerebellum was dissected from each animal. Plasma and cerebellum samples were stored at −80° C. until samples were analyzed using a SCIEX API2000 or SCIEX API5000 LC/MS/MS. Samples were analyzed for the amount of corresponding parent acid, D-serine, and/or the amount of test compound.
Conversion of test compounds to 4H-furo[3,2-b]pyrrole-5-carboxylic acid (“acid”; 77) in rats was evaluated according to General Procedure 12. 4H-furo[3,2-b]pyrrole-5-carboxylic acid and D-serine levels in plasma and cerebellum were measured. Animals were sacrificed at 6 hours post administration. In Table 6, “[D-serine] cerebellum” refers to D-serine levels, in nmol/g, in the rat cerebellum. In Table 6, “[acid] cerebellum” refers to the concentration, in μM, of the 4H-furo[3,2-b]pyrrole-5-carboxylic acid in the cerebellum. In Table 6, “[acid] plasma” refers to the concentration, in μM, of the 4H-furo[3,2-b]pyrrole-5-carboxylic acid in the plasma. The row labeled “acid”, denotes the data obtained from dosing 4H-furo[3,2-b]pyrrole-5-carboxylic acid. The row labeled “vehicle” denotes the data obtained from dosing vehicle, and the remaining row in the table denote the data obtained from dosing the test compounds.

SMILES | [D-serine] cerebellum
O=C(OCOC(=O)c1cc2occc2[nH]1)c1cc2occc2[nH]1 [compound 41, methylene bis(4H-furo[3,2-b]pyrrole-5-carboxylate)] | 14 ± 0.2(3) nmol/g
O=C(OCn1ccnc1)c1cc2occc2[nH]1 [compound 28, (1H-imidazol-1-yl)methyl 4H-furo[3,2-b]pyrrole-5-carboxylate] | 19 ± 1.9(3) nmol/g
O=C(OCCl)c1cc2occc2[nH]1 [compound 76, chloromethyl 4H-furo[3,2-b]pyrrole-5-carboxylate] | 12 ± 1.5(3) nmol/g
O=C(OCc1ccccc1)c1cc2occc2[nH]1 [compound 9, benzyl 4H-furo[3,2-b]pyrrole-5-carboxylate] | 21 ± 0.4(3) nmol/g
O=C(OCCOC(=O)c1cc2occc2[nH]1)c1cc2occc2[nH]1 [compound 55, ethane-1,2-diyl bis(4H-furo[3,2-b]pyrrole-5-carboxylate)] | 13 ± 1.1(3) nmol/g
CC1(C)OC(=O)c2cc3occc3n21 [compound 2, 11,11-dimethyl-5,10-dioxa-1-azatricyclo[6.3.0.0^2,6]undeca-2(6),3,7-trien-9-one] | 17 ± 1.0(3) nmol/g
CC(=O)OCOC(=O)c1cc2occc2n1COC(C)=O [compound 71, acetoxymethyl 4-(acetoxymethyl)-4H-furo[3,2-b]pyrrole-5-carboxylate] | 14 ± 0.9(3) nmol/g
CCOC(=O)c1cc2occc2n1COCCOC(=O)C(N)C(C)C (stereo in doubt) [compound 68, (S)-ethyl 4-((2-(2-amino-3-methylbutanoyloxy)ethoxy)methyl)-4H-furo[3,2-b]pyrrole-5-carboxylate] | 5 ± 0.4(3) nmol/g
CC1OC(=O)c2cc3occc3n21 (centres unmarked) [compound 3, 11-methyl-5,10-dioxa-1-azatricyclo[6.3.0.0^2,6]undeca-2(6),3,7-trien-9-one] | 17 ± 1.0(3) nmol/g
NC(=O)CNC(=O)c1cc2occc2[nH]1 [compound 57, N-(2-amino-2-oxoethyl)-4H-furo[3,2-b]pyrrole-5-carboxamide] | 5 ± 0.5(3) nmol/g
CCOC(=O)c1cc2occc2n1COC(=O)c1ccccc1 [compound 59, ethyl 4-(benzoyloxymethyl)-4H-furo[3,2-b]pyrrole-5-carboxylate] | 11 ± 1.9(3) nmol/g
CCC(=O)OCOC(=O)c1cc2occc2[nH]1 [compound 42, propionyloxymethyl 4H-furo[3,2-b]pyrrole-5-carboxylate] | 20 ± 1.5(3) nmol/g
NC(=O)c1cc2occc2[nH]1 [compound 56, 4H-furo[3,2-b]pyrrole-5-carboxamide] | 7 ± 0.7(2) nmol/g
CN1CCN(C(=O)c2cc3occc3[nH]2)CC1 [compound 58, (4H-furo[3,2-b]pyrrol-5-yl)(4-methylpiperazin-1-yl)methanone] | 5 ± 0.3(3) nmol/g
O=C1OCC(OC(=O)c2cc3occc3[nH]2)O1 (centres unmarked) [compound 73, 2-oxo-1,3-dioxolan-4-yl 4H-furo[3,2-b]pyrrole-5-carboxylate] | 24 ± 2.0(2) nmol/g
CCOC(=O)c1cc2occc2n1COC(=O)C(C)C [compound 65, ethyl 4-(isobutyryloxymethyl)-4H-furo[3,2-b]pyrrole-5-carboxylate] | 11 ± 2.6(3) nmol/g
CC(=O)OCn1c(C(=O)O)cc2occc21 [compound 66, 4-(acetoxymethyl)-4H-furo[3,2-b]pyrrole-5-carboxylic acid] | 12 ± 0.7(3) nmol/g
O=C(OCCn1ccnc1)c1cc2occc2[nH]1 [compound 27, 2-(1H-imidazol-1-yl)ethyl 4H-furo[3,2-b]pyrrole-5-carboxylate] | 17 ± 0.6(3) nmol/g
CC(C)C(=O)OCOC(=O)c1cc2occc2[nH]1 [compound 47, isobutyryloxymethyl 4H-furo[3,2-b]pyrrole-5-carboxylate] | 22 ± 3.0(3) nmol/g

SMILES | [D-serine] cerebellum
CC(=O)OC(C)OC(=O)c1cc2occc2[nH]1 (centres unmarked) [compound 33, 1-acetoxyethyl 4H-furo[3,2-b]pyrrole-5-carboxylate] | 19 ± 1.4(3) nmol/g
CCOC(=O)c1cc2occc2n1COC(C)=O [compound 64, ethyl 4-(acetoxymethyl)-4H-furo[3,2-b]pyrrole-5-carboxylate] | 14 ± 3.6(3) nmol/g
CC(OC(=O)OC(C)(C)C)OC(=O)c1cc2occc2[nH]1 (centres unmarked) [compound 37, 1-(tert-butoxycarbonyloxy)ethyl 4H-furo[3,2-b]pyrrole-5-carboxylate] | 18 ± 1.1(3) nmol/g
O=C(OC1OC(=O)c2ccccc21)c1cc2occc2[nH]1 (centres unmarked) [compound 74, 3-oxo-1,3-dihydroisobenzofuran-1-yl 4H-furo[3,2-b]pyrrole-5-carboxylate] | 13 ± 1.2(3) nmol/g
CC(=O)OCOC(=O)c1cc2occc2[nH]1 [compound 38, acetoxymethyl 4H-furo[3,2-b]pyrrole-5-carboxylate] | 19 ± 4.4(4) nmol/g
CCN(CC)C(=O)COC(=O)c1cc2occc2[nH]1 [compound 23, 2-(diethylamino)-2-oxoethyl 4H-furo[3,2-b]pyrrole-5-carboxylate] | 18 ± 2.3(3) nmol/g
CCCOC(=O)c1cc2occc2[nH]1 [compound 4, propyl 4H-furo[3,2-b]pyrrole-5-carboxylate] | 20 ± 1.3(3) nmol/g
CCC(OC(C)=O)OC(=O)c1cc2occc2[nH]1 (centres unmarked) [compound 45, 1-acetoxypropyl 4H-furo[3,2-b]pyrrole-5-carboxylate] | 22 ± 1.9(3) nmol/g
CC(=O)OC(OC(=O)c1cc2occc2[nH]1)C(C)C (centres unmarked) [compound 40, 1-acetoxy-2-methylpropyl 4H-furo[3,2-b]pyrrole-5-carboxylate] | 22 ± 2.7(3) nmol/g
O=C(OCn1c(C(=O)O)cc2occc21)c1ccccc1 [compound 60, 4-(benzoyloxymethyl)-4H-furo[3,2-b]pyrrole-5-carboxylic acid] | 13 ± 1.1(3) nmol/g
CC(C)COC(=O)c1cc2occc2[nH]1 [compound 7, isobutyl 4H-furo[3,2-b]pyrrole-5-carboxylate] | 19 ± 1.5(3) nmol/g
CN(C)CCOC(=O)c1cc2occc2[nH]1 [compound 32, 2-(dimethylamino)ethyl 4H-furo[3,2-b]pyrrole-5-carboxylate] | 9 ± 0.7(3) nmol/g
CC(C)OC(=O)OC(C)OC(=O)c1cc2occc2[nH]1 (centres unmarked) [compound 36, 1-(isopropoxycarbonyloxy)ethyl 4H-furo[3,2-b]pyrrole-5-carboxylate] | 20 ± 2.9(6) nmol/g
CC(C)C(=O)OCn1c(C(=O)O)cc2occc21 [compound 67, 4-(isobutyryloxymethyl)-4H-furo[3,2-b]pyrrole-5-carboxylic acid] | 14 ± 0.9(3) nmol/g
CC(C)CCCOC(=O)c1cc2occc2[nH]1 [compound 8, 4-methylpentyl 4H-furo[3,2-b]pyrrole-5-carboxylate] | 20 ± 1.5(3) nmol/g
CCCC(=O)OC(C)OC(=O)c1cc2occc2[nH]1 (centres unmarked) [compound 44, 1-(butyryloxy)ethyl 4H-furo[3,2-b]pyrrole-5-carboxylate] | 21 ± 1.3(3) nmol/g
CCC(=O)OC(C)OC(=O)c1cc2occc2[nH]1 (centres unmarked) [compound 34, 1-(propionyloxy)ethyl 4H-furo[3,2-b]pyrrole-5-carboxylate] | 20 ± 1.7(3) nmol/g
CCCCCCCOC(=O)c1cc2occc2[nH]1 [compound 6, heptyl 4H-furo[3,2-b]pyrrole-5-carboxylate] | 18 ± 0.7(3) nmol/g
CCCCOC(=O)c1cc2occc2[nH]1 [compound 5, butyl 4H-furo[3,2-b]pyrrole-5-carboxylate] | 18 ± 1.2(3) nmol/g
